Experimental data as given in US20140357620A1, “METHOD FOR ADMINISTRATION OF A GAMMA SECRETASE INHIBITOR” (Hoffmann-La Roche Inc., priority 2011, published 2014).
Like-named read-outs stand apart in the source and are kept apart here.

How the values were obtained:
[1] = ongoing first phase 1 trial of Compound A (pharmacokinetics); parameters: species or system patients; conditions: human, in vivo, oral
Excerpt: This schedule (C) includes 11 dosing days in a 3-week cycle.

[2] = parameters: species or system patients; conditions: human, in vivo
Protocol: If deemed safe, then dose escalation to dose intensities at and above that given in the 3-4 schedule at 270 mg/day will be performed. For safety reasons, the first cohorts of patients enrolled in schedules C, D, E and F will be treated with lower doses (dose level 1: 14% to 37% of dose intensity of 3-4 schedule at 270 mg). Then in the subsequent cohorts, the dose will be escalated by 50%-100%.

In the case of CC(C)(C(=O)NCC(F)(F)C(F)(F)F)C(=O)N[C@@H]1C(=O)Nc2ccccc2-c2ccccc21 [Compound A, 2,2-dimethyl-N-((S)-6-oxo-6,7-dihydro-5H-dibenzo[b,d]azepin-7-yl)-N′-(2,2,3,3,3-pentafluoro-propyl)-malonamide], the half-life ([1]; mean, read-out: mean terminal half-life (converted)) is reported as 42.2 h, the half-life ([1]; range, read-out: terminal half-life (range)) is reported as 10 to 93 h and the “highest safe dose tested so far” value [2] is reported as 270 mg/day.
